Laboratory results taken from patent US20060063759A1, “Tricyclic steroid hormone nuclear receptor modulators” (priority 2002, published 2006).
Where two headings read alike, the source gives them in different places.

Legend:
human MR = target: T1, human MR (Homo sapiens, UniProt P08235); test: Mineralocorticoid Receptor Binding Assay ([3H]-aldosterone)
T1 construct: The full length human MR gene is cloned from a human kidney or human brain cDNA library; His tag from the pAcHLT vector (own knowledge); made in house; host or cells: Sf9 insect cells (baculovirus, pAcHLT transfer vector)
T1 sequence (P08235 1-984): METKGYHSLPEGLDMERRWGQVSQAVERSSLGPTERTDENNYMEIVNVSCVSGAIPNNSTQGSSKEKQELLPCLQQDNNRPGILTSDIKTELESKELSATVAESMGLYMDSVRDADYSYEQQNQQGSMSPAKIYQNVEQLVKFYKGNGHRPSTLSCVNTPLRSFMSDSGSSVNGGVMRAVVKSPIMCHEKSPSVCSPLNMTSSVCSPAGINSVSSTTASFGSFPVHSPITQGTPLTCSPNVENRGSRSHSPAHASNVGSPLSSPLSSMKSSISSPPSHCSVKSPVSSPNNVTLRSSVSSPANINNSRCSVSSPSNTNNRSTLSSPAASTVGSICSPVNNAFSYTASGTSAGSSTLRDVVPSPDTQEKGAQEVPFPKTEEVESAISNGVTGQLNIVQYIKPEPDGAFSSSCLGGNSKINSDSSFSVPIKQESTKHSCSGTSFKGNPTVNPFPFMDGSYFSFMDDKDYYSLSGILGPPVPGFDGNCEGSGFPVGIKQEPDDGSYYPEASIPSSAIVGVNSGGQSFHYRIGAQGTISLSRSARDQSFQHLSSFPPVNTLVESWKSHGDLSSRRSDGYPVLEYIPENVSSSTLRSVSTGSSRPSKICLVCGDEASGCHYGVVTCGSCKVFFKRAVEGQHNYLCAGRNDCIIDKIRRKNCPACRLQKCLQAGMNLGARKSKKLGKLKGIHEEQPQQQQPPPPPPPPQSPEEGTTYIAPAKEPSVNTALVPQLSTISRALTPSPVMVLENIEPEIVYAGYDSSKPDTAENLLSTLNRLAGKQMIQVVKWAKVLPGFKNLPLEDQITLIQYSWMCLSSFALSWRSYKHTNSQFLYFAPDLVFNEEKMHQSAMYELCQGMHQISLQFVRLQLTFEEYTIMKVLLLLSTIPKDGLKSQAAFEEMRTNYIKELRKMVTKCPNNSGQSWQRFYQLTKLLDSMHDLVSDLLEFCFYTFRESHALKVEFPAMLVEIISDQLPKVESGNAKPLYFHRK
Summary of the method: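 Lysate supernatant of Sf9 cells expressing full-length human MR (20-25 μg protein) was incubated with 0.5 nM [3H]-aldosterone and test compound in molybdate/Tris/phosphate/glycerol buffer, pH 7.5, ~16 h at 4 °C. Bound ligand was filtered and counted by scintillation; IC50 is the concentration halving [3H]-aldosterone binding.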

glucocorticoid receptor = target: T2, glucocorticoid receptor (Homo sapiens, UniProt P04150); test: Glucocorticoid Receptor Binding Assay ([3H]-dexamethasone, A549 cell extract); settings: [3H]-dexamethasone binding, read-out: GR Ki
T2 construct: containing 50-200 ug of A549 cell extract and 1.86 nM [^3H]-dexamethasone; host or cells: A549 human lung epithelial cells (sonicated cell extract)
T2 sequence (P04150 1-777): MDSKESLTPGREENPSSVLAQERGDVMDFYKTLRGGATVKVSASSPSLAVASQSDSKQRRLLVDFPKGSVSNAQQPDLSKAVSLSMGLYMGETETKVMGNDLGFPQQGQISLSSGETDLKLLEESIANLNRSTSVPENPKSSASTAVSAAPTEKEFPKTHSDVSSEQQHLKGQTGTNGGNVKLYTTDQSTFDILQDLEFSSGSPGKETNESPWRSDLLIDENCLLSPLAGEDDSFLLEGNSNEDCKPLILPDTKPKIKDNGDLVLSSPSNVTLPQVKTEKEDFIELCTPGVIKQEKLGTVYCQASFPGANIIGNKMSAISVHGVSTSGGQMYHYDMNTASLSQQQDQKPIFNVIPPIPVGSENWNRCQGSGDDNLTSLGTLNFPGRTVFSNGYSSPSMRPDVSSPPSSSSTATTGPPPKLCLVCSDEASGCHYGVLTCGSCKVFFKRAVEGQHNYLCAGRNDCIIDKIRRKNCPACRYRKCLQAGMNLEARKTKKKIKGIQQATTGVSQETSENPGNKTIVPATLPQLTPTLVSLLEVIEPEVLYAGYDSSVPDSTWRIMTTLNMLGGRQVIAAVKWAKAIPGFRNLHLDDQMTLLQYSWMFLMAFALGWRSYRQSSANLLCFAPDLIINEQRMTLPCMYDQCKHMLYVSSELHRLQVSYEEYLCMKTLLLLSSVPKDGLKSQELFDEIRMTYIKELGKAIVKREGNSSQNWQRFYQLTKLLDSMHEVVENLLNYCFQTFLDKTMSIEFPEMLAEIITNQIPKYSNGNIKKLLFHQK
Summary of the method: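 A549 cell extract (50–200 ug) incubated with 1.86 nM [3H]-dexamethasone and test compound for 16 h at 4 °C in Tris-HCl pH 7.2 buffer with glycerol and molybdate. Unbound radioligand removed by dextran-coated charcoal, then supernatant bound counts measured by scintillation.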

[1] = [3H]-aldosterone binding, human MR expressed in Sf9 cells, read-out: MR Ki

Row | Ki (human MR; [1]) [nM] | Ki (glucocorticoid receptor) [nM] | SMILES | Ki (human MR) [nM]
1 | < 500 | < 1000 | Fc1ccc2c(c1)CCc1ncccc1/C2=C/c1cccc(C(F)F)c1 [Example 541] | 
2 | < 500 | < 1000 | COc1cc(C=C2c3ccccc3CCc3ccccc32)ccc1F [Example 148, 5-(4-Fluoro-3-methoxy-benzylidene)-10,11-dihydro-5H-dibenzo[a,d]cycloheptene] | 
3 | < 500 | < 500 | O=S(=O)(Nc1cccc(C=C2c3ccccc3CCc3cc(Cl)ccc32)c1)c1ccc(F)cc1 [Example 291] | 
4 | < 500 | < 500 | CS(=O)(=O)Nc1cccc(C=C2c3ccccc3CCc3ccc(F)cc32)c1 (mixture of isomers) [Example 214, N-[3-(3-Fluoro-10,11-dihydro-dibenzo[a,d]cyclohepten-5-ylidenemethyl)-phenyl]-methanesulfonamide] | 
5 | < 500 | < 500 | CS(=O)(=O)Nc1cccc(/C=C2/c3ccccc3CCc3ncsc32)c1 [Example 555] | 
6 | < 500 | < 500 | CS(=O)(=O)Nc1cccc(/C=C2/c3ccc(Cl)cc3COc3ccccc32)c1 [Example 726] | 
7 | < 500 | < 500 | CS(=O)(=O)NCc1cccc(/C=C2\c3ccccc3CSc3ccccc32)c1 [Example 722] | 
8 | < 500 | < 500 | CS(=O)(=O)Nc1cccc(C=C2c3ccccc3CCc3ccc(Cl)cc32)c1 [188(a), N-[3-(3-Chloro-10,11-dihydro-dibenzo[a,d]cyclohepten-5-ylidenemethyl)-phenyl]-methanesulfonamide] | 
9 | < 500 | < 500 | COc1cc2c(c(OC)c1)/C(=C\c1cccc(NS(C)(=O)=O)c1)c1ccccc1SC2 [Example 687] | 
10 | < 500 | < 10000 | Cc1nc(S(=O)(=O)Nc2cccc(C=C3c4ccccc4CCc4ccccc43)c2)cn1C [Example 96, 1,2-Dimethyl-1H-imidazole-4sulfonic acid [3-(10,11-dihydro-dibenzo[a,d]cyclohepten-5-ylidenemethyl)-phenyl]-amide] | 
11 | < 500 | < 10000 | CC(=O)Nc1cccc(/C=C2\c3ccc(F)cc3CCc3ncccc32)c1 [Example 545] | 
12 | < 500 | < 500 | CS(=O)(=O)Nc1cccc(/C=C2\c3ccccc3CCc3cc(C(F)F)ccc32)c1 [Example 375] | 
13 | < 500 | < 500 | CS(=O)(=O)Nc1cc(F)cc(/C=C2\c3ccc(F)cc3CCc3ncccc32)c1 [Example 488, (E)-N-[3-Fluoro-5-(8-fluoro-10,11-dihydro-benzo[4,5]cyclohepta[1,2-b]pyridin-5-ylidenemethyl)-phenyl]-methanesulfonamide] | 
14 | < 1000 | < 1000 | NS(=O)(=O)c1ccccc1C=C1c2ccccc2CCc2ccccc21 [Example 3, 2-(10,11-Dihydro-dibenzo[a,d]cyclohepten-5-ylidenemethyl)-benzenesulfonamide] | 
15 | < 500 | < 500 | CS(=O)(=O)Nc1cccc(/C=C2\c3ccccc3CCc3ncccc32)c1 [Example 506] | 
16 | < 500 | < 500 | CS(=O)(=O)Nc1cccc(/C=C2/c3ccccc3CSc3cc(Cl)ccc32)c1 [Example 741] | 
17 | < 500 | < 500 | Oc1cccc(/C=C2/c3ccccc3CCc3cc(C(F)F)ccc32)c1 [Example 334] | 
18 | < 500 | < 500 | Cc1ccc(S(=O)(=O)Nc2cccc(C=C3c4ccccc4CCc4cc(Cl)ccc43)c2)cc1 [Example 292] | 
19 | < 500 | < 10000 | CS(=O)(=O)NCc1ccc(/C=C2/c3ccccc3CCc3cc(Cl)ccc32)cc1 [Example 345] | 
20 | < 500 | < 500 | COc1cccc2c1/C(=C/c1cccc(NS(C)(=O)=O)c1)c1ccccc1OC2 [Example 703] | 
21 | < 500 | < 500 | CS(=O)(=O)Nc1cccc(C(=C2c3ccccc3CCc3ccccc32)c2ccccc2)c1 [Example 762] | 

More lines, now with the values behind:

Row | SMILES | Ki (human MR; [1]) [nM] | Ki (glucocorticoid receptor) [nM] | Ki (human MR) [nM]
22 | C/C(=C1/c2ccccc2COc2cc(C)ccc21)c1cccc(NS(C)(=O)=O)c1 [Example 786] | < 500 | < 500 | 
23 | Nc1cccc(/C=C2/c3ccc(F)cc3CCc3ncccc32)c1 [Example 533] | < 500 | < 1000 | 
24 | COC(=O)c1ccccc1/C=C1/c2ccc(F)cc2CCc2ncccc21 [Example 589] | < 500 | < 500 | 
25 | COc1cccc(C=C2c3ccccc3CNc3ccccc32)c1 [Example 650] | < 500 | < 500 | 
26 | COc1ccc2c(c1)COc1cc(F)ccc1/C2=C(/C)c1cccc(NS(C)(=O)=O)c1 [Example 819] |  | < 500 | < 500
27 | C(=C1c2ccccc2CCc2ccccc21)c1ccccc1-c1ccccn1 [Example 227, 2-[2-(10,11-Dihydro-dibenzo[a,d]cyclohepten-5-ylidenemethyl)-phenyl]-pyridine] | < 500 | < 1000 | 
28 | C(=C1c2ccccc2CSc2ccccc21)c1ccccc1 [Example 701] | < 500 | < 500 | 
29 | O=c1[nH]c2cc(/C=C3\c4ccccc4COc4cc(F)ccc43)ccc2s1 [Example 637] | < 500 | < 500 | 
30 | COc1ccc(N)cc1C=C1c2ccccc2CCc2ccccc21 [Example 41, 3-(10,11-Dihydro-dibenzo[a,d]cyclohepten-5-ylidenemethyl)-4-methoxy-phenylamine] | < 1000 | < 10000 | 
31 | CC(C)n1c(=O)[nH]c2cc(/C=C3\c4ccccc4COc4cc(F)ccc43)ccc21 [Example 612, 5-(3-Fluoro-6H-dibenzo[b,e]oxepin-11-ylidenemethyl)-1-isopropyl-1,3-dihydro-benzoimidazol-2-one] | < 500 | < 10000 | 
32 | C(=C1c2ccccc2CCc2ccccc21)c1ccccc1-c1cnccn1 [Example 225, 2-[2-(10,11-Dihydro-dibenzo[a,d]cyclohepten-5-ylidenemethyl)-phenyl]-pyrazine] | < 500 | < 10000 | 
33 | CC(=C1c2ccccc2CCc2ccccc21)c1cccc(N)c1 [Example 761] | < 500 | < 500 | 
34 | CN(C)c1ccccc1C=C1c2ccccc2CCc2ccccc21 [Example 121, [2-(10,11-Dihydro-dibenzo[a,d]cyclohepten-5-ylidenemethyl)-phenyl]-dimethyl-amine] | < 500 | < 10000 | 
35 | CC/C(=C1\c2ccc(OC)cc2COc2ccccc21)c1cccc(NS(C)(=O)=O)c1 [Example 822] | < 500 | < 500 | 
36 | COc1ccc2c(c1)CSc1ccccc1/C2=C(/C)c1cccc(NS(C)(=O)=O)c1 [Example 841] | < 500 | < 500 | 
37 | CC(C)n1c(=O)[nH]c2cc(/C=C3\c4ccc(F)cc4CCc4ncccc43)ccc21 [Example 592] | < 500 | < 10000 | 
